Data set [1] deals with Staphylococcus aureus. In words: Antibacterial activity against methicillin-sensitive Staphylococcus aureus by broth microdilution technique. The data set is classed as functional.
Data set [2] concerns Staphylococcus aureus. In words: Antibacterial activity against methicillin-sensitive Staphylococcus aureus infected rabbit arthritis model assessed as change in bacterial load per gram of synovial fluid at 50 mg/kg, im administered thrice a day after 7 days by broth microdilution technique. It is filed as functional. As to conditions: route intramuscular. Background: In broth dilution the organism is exposed to a series of concentrations in liquid medium.

In data set [3] the test system is Staphylococcus aureus. In words: microbe, parasite or virus in culture.
Description: Antibacterial activity against methicillin-resistant Staphylococcus aureus by broth microdilution technique
A short description of data set [4]: Drug level in serum of Staphylococcus aureus infected rabbit arthritis model at 50 mg/kg, im administered thrice a day. The data set is classed as ADME, organism-based, Oryctolagus cuniculus. On the set-up: dose 50 mg/kg, route intramuscular. The following applies: in vivo.
Data set [5] is described as follows: Cmax in human serum at 400 mg, po administered as single dose. The data set is classed as ADME, organism-based. The following applies: read-out: tCmax.
Data set [6] is described as follows: Cmax in Staphylococcus aureus infected rabbit arthritis model at 45 mg/kg, po. It is filed as ADME, organism-based, Oryctolagus cuniculus. On the set-up: dose 45 mg/kg, route oral. As to conditions: in vivo.
Data set [7] in a line: AUC (0 to 24 hrs) in human serum at 400 mg, po administered as single dose. It is filed as ADME, organism-based. The arrangement: time < 24 hr, dose 400 mg, route oral.
Data set [8] in a line: Cmax in human serum at 400 mg, po administered as single dose after 1 hr. The data set is classed as ADME, organism-based. The arrangement: dose 400 mg, route oral.
In data set [9] the test system is Staphylococcus aureus. In words: Antibacterial activity against ciprofloxacin and methicillin-resistant Staphylococcus aureus.
A short description of data set [10]: AUC (0 to 24 hrs) in Staphylococcus aureus infected rabbit arthritis model at 45 mg/kg, po. The arrangement: time < 24 hr, dose 45 mg/kg, route oral. As to conditions: in vivo. The data set is classed as ADME, organism-based, Oryctolagus cuniculus.
A short description of data set [11]: Drug level in serum of Staphylococcus aureus infected rabbit arthritis model at 100 mg/kg, iv administered daily. The arrangement: dose 100 mg/kg, route intravenous. As to conditions: in vivo. It is filed as ADME, organism-based, Oryctolagus cuniculus.

The structures appear in SMILES notation. Values after ≈ are worked out from the molar mass of the structure shown.

As for `Cc1onc(-c2ccccc2Cl)c1C(=O)N[C@@H]1C(=O)N2[C@@H]1SC(C)(C)[C@@H]2C(=O)O` [CLOXACILLIN], the MIC amounted to 0.5 µg/mL (≈ 1.15 µM) in data set [1] and 4 µg/mL (≈ 9.18 µM) in data set [3]. For the same molecule, in [2], the deltalog10CFU is reported as 4.6. The Drug uptake in data set [4] is reported as 0.8 mg/L.

The term Cmax denotes the maximum level reached in the sampled fluid or tissue. The term AUC(0-t) denotes the area under the concentration-time curve up to a stated or last time point. A high value points to high exposure. Take `COc1c(N2C[C@@H]3CCCN[C@@H]3C2)c(F)cc2c(=O)c(C(=O)O)cn(C3CC3)c12` [MOXIFLOXACIN]: the MIC in [1] came to 0.032 µg/mL (≈ 0.0797 µM); in [3], 1 µg/mL (≈ 2.49 µM); in data set [9], 0.25 µg/mL (≈ 0.623 µM). Also, the Tmax in data set [5] amounted to 1 h. The Cmax in [6] was 2850 ng/mL; in data set [8] it was 2500 ng/mL. In addition, the values for the AUC(0-t) at 24 h in data set [7] and in [10] were 35000 ng·h/mL and 37500 ng·h/mL, respectively.

As for `CN[C@H](CC(C)C)C(=O)N[C@H]1C(=O)N[C@@H](CC(N)=O)C(=O)N[C@H]2C(=O)N[C@H]3C(=O)N[C@H](C(=O)N[C@H](C(=O)O)c4cc(O)cc(O)c4-c4cc3ccc4O)[C@H](O)c3ccc(c(Cl)c3)Oc3cc2cc(c3O[C@@H]2O[C@H](CO)[C@@H](O)[C@H](O)[C@H]2O[C@H]2C[C@](C)(N)[C@H](O)[C@H](C)O2)Oc2ccc(cc2Cl)[C@H]1O` [VANCOMYCIN], the MIC in data set [1] was 0.032 µg/mL (≈ 0.0221 µM). In data set [11], this molecule displayed a Drug uptake of 26.3 mg/L.
